Source: PubChem BioAssay (NCI)
“And” between values parts separate entries of the source, which are not always exact repeats. Identical values can stand only once.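 Interpolation was linear, between the two tested concentrations surrounding the appropriate level; five concentrations were tested over 48 hours in 96-well plates. GI50 is the concentration that inhibits growth by half. TGI is the concentration that stops growth completely.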

Tests used:
Experiment in all cases: DTP human tumour cell line panel, 48 h
[1] = tested on: OVCAR-3 ovarian
[2] = tested on: M14 melanoma
[3] = tested on: BT-549 breast
[4] = tested on: CCRF-CEM leukemia
[5] = tested on: A498 renal
[6] = tested on: SNB-75 CNS
[7] = tested on: K-562 leukemia
[8] = tested on: NCI-H23 lung
[9] = tested on: OVCAR-5 ovarian
[10] = tested on: COLO 205 colon

Row | Compound | GI50 [1] | TGI [1] | GI50 [2] | TGI [2] | GI50 [3] | TGI [3] | GI50 [4] | TGI [4] | GI50 [5] [nM] | TGI [5] [nM] | GI50 [6] | TGI [6] | GI50 [7] [nM] | TGI [7] [nM] | GI50 [8] | TGI [8] | GI50 [9] | TGI [9] | GI50 [10] | TGI [10]
1 | O=C1C(Cl)=C(Nc2cccc(Cl)c2)C(=O)N1Cc1ccccc1Cl | 2140 nM | 16100 nM | 4410 nM | 19400 nM | 4310 nM | 26000 nM | 457 nM | > 100000 nM | 11800 | 24800 | 5480 nM | 30000 nM | 1870 | 8910 | – | – | – | – | – | –
2 | Fc1ccc2c(c1)c(-c1nc(-c3c[nH]c4ncccc34)cs1)cn2CCCN1CCCCC1 | 1630 nM | 3120 nM | 1760 nM | 3480 nM | 3720 nM | 14500 nM | – | – | 2570 | 6480 | 1340 nM | 2980 nM | 1720 | 3600 | 1640 nM | 3130 nM | 1610 nM | 3100 nM | 1730 nM | 3480 nM
3 | C=C1C(=O)O[C@H]2[C@H]1CC/C(Cn1cc(-c3cc(C(F)(F)F)cc(C(F)(F)F)c3)nn1)=C\CC[C@@]1(C)O[C@@H]21 | 152 nM | 358 nM | 357 nM | 1550 nM | 178 nM | 509 nM | 169 nM | 821 nM | 437 | 1710 | 1260 nM | 2520 nM | 238 | 601 | 1120 nM | 2650 nM | 1100 nM | 2480 nM | 141 nM | 364 nM
4 | CC(=O)[C@@]1(O)CC[C@H]2[C@@H]3C[C@H](C)C4=CC(=O)CC[C@]4(C)[C@H]3[C@@H](O)C[C@@]21C | – | > 100000 nM | – | > 100000 nM | – | > 100000 nM | – | > 100000 nM | – | > 100000 | – | > 100000 nM | – | > 100000 | – | > 100000 nM | – | > 100000 nM | – | > 100000 nM
5 | COc1ncc(-c2ccc3nccc(-c4ccnnc4)c3c2)cc1NS(=O)(=O)c1ccc(F)cc1F | 9.01 nM and < 10.9 nM | 763 nM and 376 nM | 13 nM and < 10 nM | 794 nM and 485 nM | 3.92 nM and < 10 nM | 68.8 nM and 43.4 nM | 33.3 nM and 26.2 nM | 706 nM and 4040 nM | 1.5 | 8.26 | 1.33 nM and < 10 nM | 13.5 nM and < 15.6 nM | – | > 100000 | 29 nM and 17.4 nM | > 8670 nM and 6460 nM | 7.28 nM and < 10 nM | > 10000 nM and 2760 nM | 5.61 nM and < 10 nM | 542 nM and 257 nM
6 | COC(=O)c1c2c(c(C)[n+]([O-])c1C)C(=O)C=C(NCc1ccc(F)c(Cl)c1)C2=O | 201 nM | 628 nM | 117 nM | 1450 nM | 1010 nM | 2430 nM | 475 nM | 4710 nM | 437 | 2050 | 1690 nM | 3090 nM | 31.5 | 5270 | 412 nM | 2110 nM | 1160 nM | 2690 nM | 245 nM | 863 nM
7 | COc1cc(-c2nn(-c3cccc(NC(=O)Nc4cc(C(F)(F)F)cc(C(F)(F)F)c4)c3)cc2-c2ccncc2)ccc1Cl | 293 nM | 1070 nM | 826 nM | 4680 nM | 1260 nM | 3450 nM | 498 nM | 2790 nM | 587 | 2130 | 961 nM | 2740 nM | 279 | 3030 | 590 nM | 3940 nM | 1090 nM | 3540 nM | 817 nM | 1600 nM
8 | COc1ccc2c(=O)c3ccoc3n(CC=C(C)C)c2c1 | – | > 100000 nM | – | > 100000 nM | – | > 100000 nM | – | > 100000 nM | – | > 100000 | – | > 100000 nM | – | > 100000 | – | > 100000 nM | – | > 100000 nM | – | > 100000 nM
9 | O=C1C(=O)c2ccccc2C(O)=C1CC=C(Br)Br | 8750 nM | 34700 nM | 7380 nM | 55400 nM | 11300 nM | 71900 nM | 2700 nM | > 100000 nM | 6210 | 31300 | 2580 nM | 59500 nM | 1330 | > 100000 | – | – | 21800 nM | > 100000 nM | 10300 nM | 24500 nM
10 | CC(C)(C)c1nn(-c2ccccc2)c2c1C(=O)CSC(c1ccccc1Cl)N2 (stereo not given) | 1370 nM | 6370 nM | 1180 nM | 6450 nM | 2910 nM | 12900 nM | 2480 nM | 13500 nM | 353 | 3780 | 2200 nM | 13900 nM | 583 | 14900 | 2390 nM | 17900 nM | 3180 nM | 13100 nM | 2510 nM | 6010 nM
11 | Cc1cc2nc3c4cc(N)ccc4n(CCN(C)C)c3nc2cc1C | 1390 nM | 6870 nM | 1120 nM | 2880 nM | 2230 nM | 8730 nM | 891 nM | 17600 nM | 763 | 2320 | 1160 nM | 6820 nM | 421 | 8980 | 981 nM | 3730 nM | 914 nM | 9660 nM | 408 nM | 5270 nM
12 | N#Cc1nc2c(S(=O)(=O)c3ccccc3)c(N)n(Cc3cccnc3)c2nc1C#N | 3480 nM | > 100000 nM | – | – | 4600 nM | 37300 nM | 3860 nM | > 100000 nM | 17200 | 55500 | 3350 nM | 20200 nM | > 100000 | > 100000 | 40000 nM | > 100000 nM | > 100000 nM | > 100000 nM | > 100000 nM | > 100000 nM
13 | Cc1ccccc1N=Nc1ccc(NC(=O)c2ccnn2C)c(C)c1 | > 100000 nM | > 100000 nM | 32400 nM | > 100000 nM | 8530 nM | > 100000 nM | 43300 nM | > 100000 nM | 13200 | 42600 | 3660 nM | 33500 nM | – | – | 18700 nM | > 100000 nM | > 100000 nM | > 100000 nM | > 100000 nM | > 100000 nM
